# Earlier results as cited in patent publication US8067405B2, “Superoxide dismutase mimics for the treatment of ocular disorders and diseases” (Novartis AG, priority 2002, dated 2011).
# Tested on: diabetogenic T-cell clone
# Conditions: in a cloned cell
smiles,measurement,value
CCN1C=CC=C/C1=C1/C2=NC(=C(c3cccc[n+]3CC)C3=NC(=C(c4cccc[n+]4CC)c4ccc([n-]4)C(c4cccc[n+]4CC)=C4C=CC1=N4)C=C3)C=C2.[Cl-].[Cl-].[Cl-].[Cl-].[Cl-].[Mn+3] [AEOL10113],onset of diabetes,delay the onset of diabetes
